Experiment [1] deals with EL-4 cells. The experiment is described as follows: IL-17A and IL-23R mRNA in PMA/ionomycin stimulated EL-4 cells (real-time PCR). Particulars: 5 μM pre-treatment 20 hr, PMA/ionomycin stimulation. The format is cell-based, murine. The method, then: (§1) The treatment of EL4 with SR2211 repressed the Il17 gene expression to a greater extent as compared to digoxin. […] In order to measure the effect of SR2211 on IL-17 production, we determined the intracellular levels of IL-17 using flow cytometry. After the stimulation of EL-4 cells with PMA/ionomycin for 3 hr, the cells were treated with BD GolgiPlug™ (protein transport inhibitor) to allow intracellular accumulation of cytokines. After 2 hr, the cells were fixed and stained to analyze the IL-17 by flow cytometry.
One million EL-4 cells were seeded in each well of 6 well plate and incubated with 5 uM of digoxin or SR2211 or DMSO for 20 hrs. Cells were then stimulated with phorbol 12-myristate 13-acetate (PMA) (50 ng/ml; Sigma) and Ionomycin (1 ug/ml; Sigma) for 5 hours. Then, RNA was extracted with RNeasy midi kit using DNase I (Qiagen), then cDNA was synthesized with high capacity cDNA Reverse Transcription kits (Applied Biosystems). IL17A gene expression was normalized to the expression of GAPDH. IL17A, IL-23R and GAPDH primer sets were as follows: […]

Experiment [2] has as its system EL-4 cells. The experiment is described as follows: Intracellular IL-17 in PMA/ionomycin stimulated EL-4 cells (flow cytometry). The class given is cell-based, murine. The settings on record: 5 μM, compared to vehicle treated cells. The method, then:
as §1
For intracellular cytokine staining, cells were stimulated with PMA (50 ng/Ml) and lonomycin (1 ug/ml) for 5 hrs. After 3 hrs of incubation, BD Golgiplug (BD Bioscience) was added and incubated for 2 hrs. Then, cells were fixed, permeabilized, and stained with PEIL17A Ab (BD Biosciences). Cell sorting was performed using LSRII (BD Biosciences). • 1. Ivanov, I I; McKenzie, B. S.; Zhou, L.; Tadokoro, C. E.; Lepelley, A.; Lafaille, J. J.; Cua, D. J.; Littman, D. R. (2006) The orphan nuclear receptor RORgammat directs the differentiation program of proinflammatory IL-17+ T helper cells. Cell 126, 1121-1133. • 2. Nakae, S.; Nambu, A.; Sudo. K.; Iwakura. Y. (2003) Suppression of immune induction of collagen-induced arthritis in IL-17-deficient mice. J Immunol 171, 6173-6177. • 3. Jetten. […]
On the technique in general: In flow cytometry, cells or beads pass a laser one at a time.

The test system of the next experiment is TH17 cells. The settings on record: in vitro and in vivo; cited from earlier work.
For experiment [3] the following is noted: mouse, in vivo; cited from earlier work.

SMILES strings stand for the structures.

Turning to `C[C@H]1O[C@@H](O[C@H]2[C@@H](O)C[C@H](O[C@H]3[C@@H](O)C[C@H](O[C@H]4CC[C@@]5(C)[C@H](CC[C@@H]6[C@@H]5C[C@@H](O)[C@]5(C)[C@@H](C7=CC(=O)OC7)CC[C@]65O)C4)O[C@@H]3C)O[C@@H]2C)C[C@H](O)[C@@H]1O` [digoxin, reference compound], in the experiment on EL-4 cells [1], the IL-17 gene expression result was “significant reduction in the IL-17 gene expression” and the “expression of IL-23 receptor (Il23r)” value was “significantly inhibited”. Also, the IL-17 intracellular staining entry with EL-4 cells [2] is “significant inhibition of IL-17 intracellular staining”.
For the compound `CC(=O)Nc1nc(C)c(S(=O)(=O)Nc2ccc(C(O)(C(F)(F)F)C(F)(F)F)cc2)s1` [SR1001, N-(5-(N-(4-(1,1,1,3,3,3-hexafluoro-2-hydroxypropan-2-yl)phenyl)sulfamoyl)-4-methylthiazol-2-yl)acetamide], the “TH17 cell differentiation and function” value in the experiment on TH17 cells was “effective at suppressing TH17 cell differentiation and function in vitro and in vivo”. In experiment [3], the “onset and severity of EAE” value is “effective at delaying the onset and reducing the severity”.

The values are drawn from patent publication US9586928B2 (The Scripps Research Institute, priority 2011, dated 2017).
